According to US20110077206A1, “USE OF HNF4ALPHA FOR TREATMENT OF HUMAN MALIGNANT SOLID TUMORS THROUGH INDUCTION-DIFFERENTIATION THERAPY” (SECOND MILITARY MEDICAL UNIVERSITY, priority 2008, published 2011):

Legend:
[1] = tested on: Human hepatoma cell lines HepG2 and Hep3B; test: Flow cytometry of CD133+ cell proportion; format: cell-based; settings: data not shown
Description: 1. […] After 24 hrs, the medium was replaced with fresh DMEM culture solution containing 10% FBS. After three days, the cells were collected, and the CD133/1-PE (Miltenyi Biotec, Auburn, Calif.) was used as primary antibody for incubation, and the proportion of CD133+ cells was determined by flow cytometry.

[2] = tested on: Human hepatoma cell lines HepG2 and Hep3B; test: In vitro effects of control substances on hepatoma cell lines (RT-PCR, immunohistochemistry, morphology); format: cell-based; settings: for apoptosis / proliferation: HepG2 and Hep3B; for regulation effect on in vitro differentiation of hepatocellular carcinoma cell lines: background statement of inventors' study
Description: Human hepatoma cell lines HepG2 and Hep3B were inoculated onto the six-well plate with a concentration of 5×10^5 cells/dish, and the all-trans retinoic acid, somatostatin, tumor necrosis factor, and arsenic trioxide were added respectively. The total RNA was extracted by Trizol kit, and reverse transcriptase reaction was carried out for 2 hrs. 1 μl diluted reverse transcription product was taken and used as template for PCR amplification to detect the mRNA expression of liver cell-related function genes. The proliferation and apoptosis related proteins such as Cyclin, Bax, Bcl-2 and so on was measured by immunohistochemistry.

[3] = tested on: solid tumors; test: In vivo study of control substances on solid tumor differentiation; settings: background statement of inventors' study

Molecule: arsenic trioxide
- differentiation induction effect on tumor stem cells [1]: no significant differentiation induction effect
- apoptosis [2]: significantly increased
- proliferation [2]: reduced
- regulation effect on in vitro differentiation of hepatocellular carcinoma cell lines [2]: no drugs or proteins with clear differentiation therapy effects
- in vivo induction of differentiation of solid tumors [3]: can not effectively induce the differentiation of solid tumors

Molecule: CC1=C(/C=C/C(C)=C/C=C/C(C)=C/C(=O)O)C(C)(C)CCC1 [all-trans retinoic acid]
- differentiation induction effect on tumor stem cells [1]: no significant differentiation induction effect
- regulation effect on in vitro differentiation of hepatocellular carcinoma cell lines [2]: no drugs or proteins with clear differentiation therapy effects
- in vivo induction of differentiation of solid tumors [3]: can not effectively induce the differentiation of solid tumors

Molecule: tumor necrosis factor
- apoptosis [2]: significantly increased
- proliferation [2]: reduced
- regulation effect on in vitro differentiation of hepatocellular carcinoma cell lines [2]: no drugs or proteins with clear differentiation therapy effects
- in vivo induction of differentiation of solid tumors [3]: can not effectively induce the differentiation of solid tumors
